Experimental data from patent US20090221056A1, “Pathogen-Detecting Cell Preservation Systems” (priority 2005, published 2009).
“Also recorded” adds a separate entry of the source. The star is where a group is joined. Cbz = O=C(OCc1ccccc1)*; CH2F = FC*

Legend:
[1] = tested on: CANARY cells; assay: Toxicity of chemical additives to CANARY cells; settings: at 50 μM
[2] = tested on: CANARY B cells; assay: Viability of CANARY cells after storage with chemical additives; type: cell-based; settings: storage at room temperature (1-3 weeks), compared to cells without additive
[3] = tested on: CANARY B cells (expressing a receptor specific for Yersinia pestis); type: cell-based

Substance	toxicity of additive [1]	viability of cells stored at room temperature [2]	viability of cells stored at room temperature ([2]; listed as Tunicamycin)	activity (antigen detection) of cells stored at room temperature [3]	beneficial effect on stored cells (viability and/or activity) [3]	benefit of treatment to stored cells [3]
Cbz-LEHD-CH2F	toxic					
Cbz-WEHD-CH2F	toxic					
tunicamycin		improved both viability and activity	increases both cell viability and activity	increases both cell viability and activity; also recorded: retained detection sensitivity for Yersinia pestis; also recorded: improved both viability and activity	beneficial effects	detrimental
